The record followed here is US20240207318A1, “CHIMERIC COSTIMULATORY RECEPTORS, CHEMOKINE RECEPTORS, AND THE USE OF SAME IN CELLULAR IMMUNOTHERAPIES” (Iovance Biotherapeutics, Inc., priority 2021, published 2024).

Assay [1] relates to TILs. Put plainly: Cytokine expression of drug-treated TILs after overnight anti-CD3/CD28 bead stimulation. Format: cell-based, human.
The test system of assay [2] is TILs. Put plainly: Flow cytometry phenotype of drug-treated TILs (T-cell subsets, surface markers, transcription factors). Format: cell-based, human. Background: Flow cytometry measures light scatter and fluorescence of single cells or particles in a stream.
The subject of assay [3] is TILs. Put plainly: Expansion and viability of TILs treated with drug during ex vivo 22-day expansion. Format: cell-based, human. As to conditions: ipatasertib 0.3 or 1 μM, pre-REP and REP or REP only, relative to controls. How it is done: Patient tumors from different indications were received, fragmented, and subjected to an expansion protocol for TIL manufacturing. Different doses (0.3 μM and 1 μM) of the pan-AKT inhibitor ipatasertib were added to the culture during ex vivo expansion. The expansion potential, as well as the phenotypic and functional characteristics were evaluated on the final TIL product. Eight tumors, including tumors from melanoma, NSCLC, head and neck cancer, ovarian cancer, and breast cancer, were used in combination with the Gen 2 process.
Expansion, viability and T cell distribution in control and AKT inhibitor-treated TILs are shown. TILs were left untreated or treated with increasing concentrations of the pan-AKT inhibitor ipatasertib. Treatment was added either during the pre-REP and REP (blue bars) or during the REP stage only (purple bars). Fold expansion and viability of TIL at the end of the 22-day expansion process are shown. Frequency of CD8^+, CD4^+ and CD4^+ (Foxp3^+) cells after the expansion process on cryopreserved cells are also shown.
In this example, the use of decitabine, a DNA hypomethylation agent, in culture as an epigenetic modifier of TIL products was explored. […] Patient tumors (N=8) from different tumor types (non-small cell lung, head and neck, ovarian, and breast cancers) were obtained from donors, fragmented, and subjected to a 22-day expansion protocol for TIL generation. Different doses (10 nM, 30 nM, and 100 nM) of decitabine were added to the culture during ex vivo expansion either during the pre-REP and REP stages or during REP only. The expansion potential as well as the phenotypic and functional characteristics of TILs were evaluated in the final TIL product.
TILs were left untreated (CTRL, gray bars) or treated with increasing concentrations of decitabine. Treatment was added either during the REP stage only (blue bars) or during both pre-REP and REP (green bars).

The target in a further assay is T1, PD-L1 (human, UniProt Q9NZQ7 19-290, limits assumed).
T1 construct: also called hPD-L1; CD274
Put plainly: characterization of the anti-PD-L1 antibody clone; EC50 assay method not given.

Setting [4] is: AKT inhibition during expansion.

Entries after “also recorded” stand apart in the source; their conditions may differ.

T1 sequence (Q9NZQ7 19-290 limits assumed): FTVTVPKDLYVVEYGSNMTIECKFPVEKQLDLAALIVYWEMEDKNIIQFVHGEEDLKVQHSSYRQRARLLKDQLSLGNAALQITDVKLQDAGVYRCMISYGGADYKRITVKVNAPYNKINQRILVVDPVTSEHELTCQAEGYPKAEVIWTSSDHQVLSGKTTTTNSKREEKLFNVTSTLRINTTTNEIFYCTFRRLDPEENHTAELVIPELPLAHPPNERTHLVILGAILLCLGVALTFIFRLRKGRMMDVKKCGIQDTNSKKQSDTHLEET

On to `CC(C)NC[C@@H](C(=O)N1CCN(c2ncnc3c2[C@H](C)C[C@H]3O)CC1)c1ccc(Cl)cc1` [ipatasertib], for which the “cytokine output following stimulation” value in the assay on TILs [1] (1 μM ipatasertib at pre-REP and REP, anti-CD3/CD28 beads 1:5 overnight) is given as “higher cytokine output”. For the same molecule, the “frequency of IFNγ+ TNFα+ CD8+ T cells” value in the assay on TILs [1] (AKT inhibitor treatment) was “increase”. In addition, in the assay with TILs [2] (setting [4]), the “IL-7R and CXCR3 expression on CD8+ TILs” value was “increase”; the “frequency of CD8+ TEMRA cells” value is listed as “increase”. Moreover, the “population of less differentiated CD39-CD69- cells” value with TILs [2] (AKT inhibitor during expansion, relative to controls) is listed as “increases; also recorded: doubled”. Also, in the assay on TILs [2] (AKT inhibitor-treated TILs), the “TOX expression following stimulation” value is recorded as “lower TOX expression”. Also, the “expression of CD38 and transcription factors T-bet and TOX” value in the assay with TILs [2] (CD39-CD69- cells, AKT inhibitor 1 μM) is “reduced expression”. The “T cell ratios (CD8+, CD4+, CD4+ Foxp3+)” value in the assay on TILs [2] (ipatasertib-treated TILs after expansion) was “without affecting T cell ratios”. In the assay with TILs [3], the “TIL expansion (fold expansion)” value was “maintains” and the TIL viability result is reported as “maintains”. Moreover, in the assay on TILs [3] (listed as AKT inhibitor), the “TIL expansion (fold expansion)” value is given as “equivalent” and the TIL viability result is given as “equivalent”.

B1: anti-PD-L1 antibody clone 38A1-IgG4-HA (antibody)
chain: EVQLVESGGGLVQPGGSLRLSCAASGFTFSNYAMSWVRQAPGKGLEWVSTISGSGGTTYYADSVKGRFTISRDNSKNTLYLQMNSLRVEDTAVYYCAKDWFRSSSPDAFDIWGQGTTVTVSAGGGGSGGGGSGGGGSGAPSYVLTQPPSVSVAPGQTARITCGGNNIGRKIVHWYQQRPGQAPVLVIYYDTDRPAGIPERFSGSNSGNMATLTISTVGAGDEADYYCQVWDTGSDHVVFGGGTKLTVL
Regarding B1, the EC50 (usually the midpoint of the concentration-response curve) with PD-L1 is 0.404 nM.

B2: anti-PD-L1 antibody clone 19H9-IgG4-Flag (antibody)
chain: QVQLQESGGGLVKPGGSLRLSCAASGFTFSSYSMNWVRQAPGKGLEWVSGINTAGDTHYPESVKGRFTISRDNARNSLNLQMNSLRAEDTAVYYCVRERVEREYSGYDAFDIWGQGTTVTVSAGGGGSGGGGSGGGGSGAPNFMLTQPHSVSESLGKTVTISCTGSSGSIARKFVQWYQQRPGSSPTTVIYENNQRPSGVSDRFSGSIGSSSNSASLTISGLKTEDEADYYCQSYDSSNVVFGGGTKVTVL
Regarding B2, it took 0.125 nM to reach a half-maximal effect with PD-L1 (EC50).
